Laboratory results: PubChem BioAssay (NCI)
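Where inhibition never reached the appropriate level, the endpoint shown equals the highest concentration tested. Otherwise, values were interpolated linearly from a five-concentration, 48-hour dose response in 96-well plates. The concentration for full growth arrest is given as TGI.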

How the values were obtained:
Experiment in all cases: DTP human tumour cell line panel, 48 h
K-562 leukemia = system: K-562 leukemia
SW-620 colon = system: SW-620 colon
EKVX NSCLC = system: EKVX NSCLC
786-0 renal = system: 786-0 renal
DLD-1 colon = system: DLD-1 colon
RXF 393 renal = system: RXF 393 renal
CCRF-CEM leukemia = system: CCRF-CEM leukemia
SNB-19 CNS = system: SNB-19 CNS
UACC-62 melanoma = system: UACC-62 melanoma
M19-MEL melanoma = system: M19-MEL melanoma
OVCAR-5 ovarian = system: OVCAR-5 ovarian
MOLT-4 leukemia = system: MOLT-4 leukemia
ACHN renal = system: ACHN renal
LOX IMVI melanoma = system: LOX IMVI melanoma
HL-60(TB) leukemia = system: HL-60(TB) leukemia
RPMI-8226 leukemia = system: RPMI-8226 leukemia
LXFL 529 NSCLC = system: LXFL 529 NSCLC
DMS 273 small cell lung = system: DMS 273 small cell lung
XF 498 CNS = system: XF 498 CNS
SK-MEL-5 melanoma = system: SK-MEL-5 melanoma
OVCAR-8 ovarian = system: OVCAR-8 ovarian
HOP-18 NSCLC = system: HOP-18 NSCLC
MALME-3M melanoma = system: MALME-3M melanoma
IGROV1 ovarian = system: IGROV1 ovarian
NCI-H226 lung = system: NCI-H226 lung
UACC-257 melanoma = system: UACC-257 melanoma
HCT-116 colon = system: HCT-116 colon
UO-31 renal = system: UO-31 renal
SK-MEL-2 melanoma = system: SK-MEL-2 melanoma
HCC-2998 colon = system: HCC-2998 colon
OVCAR-4 ovarian = system: OVCAR-4 ovarian
OVCAR-3 ovarian = system: OVCAR-3 ovarian
SF-295 CNS = system: SF-295 CNS
HOP-62 NSCLC = system: HOP-62 NSCLC
HT29 colon = system: HT29 colon
SNB-78 CNS = system: SNB-78 CNS
U251 CNS = system: U251 CNS
COLO 205 colon = system: COLO 205 colon
SNB-75 CNS = system: SNB-75 CNS
KM12 colon = system: KM12 colon
A549 NSCLC = system: A549 NSCLC
HOP-92 NSCLC = system: HOP-92 NSCLC
SN12C renal = system: SN12C renal
SK-OV-3 ovarian = system: SK-OV-3 ovarian
HCT-15 colon = system: HCT-15 colon
NCI-H460 lung = system: NCI-H460 lung
M14 melanoma = system: M14 melanoma
CAKI-1 renal = system: CAKI-1 renal
TK-10 renal = system: TK-10 renal
SK-MEL-28 melanoma = system: SK-MEL-28 melanoma
KM20L2 colon = system: KM20L2 colon
DMS 114 small cell lung = system: DMS 114 small cell lung
SF-268 CNS = system: SF-268 CNS
SR leukemia = system: SR leukemia
NCI-H522 lung = system: NCI-H522 lung
SF-539 CNS = system: SF-539 CNS
NCI-H23 lung = system: NCI-H23 lung
A498 renal = system: A498 renal

CC(NC1CCCC[C@@H]1O)c1ccccc1 (stereo partly drawn)
TGI (K-562 leukemia): > 100 µM
TGI (SW-620 colon): > 100 µM
TGI (EKVX NSCLC): > 100 µM
TGI (786-0 renal): > 100 µM
TGI (DLD-1 colon): > 100 µM
TGI (RXF 393 renal): > 100 µM
TGI (CCRF-CEM leukemia): > 100 µM
TGI (SNB-19 CNS): > 100 µM
TGI (UACC-62 melanoma): > 100 µM
TGI (M19-MEL melanoma): > 100 µM
TGI (OVCAR-5 ovarian): > 100 µM
TGI (MOLT-4 leukemia): > 100 µM
TGI (ACHN renal): > 100 µM
TGI (LOX IMVI melanoma): > 100 µM
TGI (HL-60(TB) leukemia): > 100 µM
TGI (RPMI-8226 leukemia): > 100 µM
TGI (LXFL 529 NSCLC): > 100 µM
TGI (DMS 273 small cell lung): > 100 µM
TGI (XF 498 CNS): > 100 µM
TGI (SK-MEL-5 melanoma): > 100 µM
TGI (OVCAR-8 ovarian): > 100 µM
TGI (HOP-18 NSCLC): > 100 µM
TGI (MALME-3M melanoma): > 100 µM
TGI (IGROV1 ovarian): > 100 µM
TGI (NCI-H226 lung): > 100 µM
TGI (UACC-257 melanoma): > 100 µM
TGI (HCT-116 colon): > 100 µM
TGI (UO-31 renal): > 100 µM
TGI (SK-MEL-2 melanoma): > 100 µM
TGI (HCC-2998 colon): > 100 µM
TGI (OVCAR-4 ovarian): > 100 µM
TGI (OVCAR-3 ovarian): > 100 µM
TGI (SF-295 CNS): > 100 µM
TGI (HOP-62 NSCLC): > 100 µM
TGI (HT29 colon): > 100 µM
TGI (SNB-78 CNS): > 100 µM
TGI (U251 CNS): > 100 µM
TGI (COLO 205 colon): > 100 µM
TGI (SNB-75 CNS): > 100 µM
TGI (KM12 colon): > 100 µM
TGI (A549 NSCLC): > 100 µM
TGI (HOP-92 NSCLC): > 100 µM
TGI (SN12C renal): > 100 µM
TGI (SK-OV-3 ovarian): > 100 µM
TGI (HCT-15 colon): > 100 µM
TGI (NCI-H460 lung): > 100 µM
TGI (M14 melanoma): > 100 µM
TGI (CAKI-1 renal): > 100 µM
TGI (TK-10 renal): > 100 µM
TGI (SK-MEL-28 melanoma): > 100 µM
TGI (KM20L2 colon): > 100 µM

CC(C)(C1=NC(C(C)(C)C)CO1)C1=N[C@@H](C(C)(C)C)CO1 (stereo partly drawn)
TGI (K-562 leukemia): > 100 µM
TGI (SW-620 colon): > 100 µM
TGI (EKVX NSCLC): > 100 µM
TGI (786-0 renal): > 100 µM
TGI (DLD-1 colon): > 100 µM
TGI (DMS 114 small cell lung): > 100 µM
TGI (RXF 393 renal): > 100 µM
TGI (CCRF-CEM leukemia): > 100 µM
TGI (SNB-19 CNS): > 100 µM
TGI (UACC-62 melanoma): > 100 µM
TGI (M19-MEL melanoma): > 100 µM
TGI (OVCAR-5 ovarian): > 100 µM
TGI (MOLT-4 leukemia): > 100 µM
TGI (ACHN renal): > 100 µM
TGI (LOX IMVI melanoma): > 100 µM
TGI (HL-60(TB) leukemia): > 100 µM
TGI (SF-268 CNS): > 100 µM
TGI (RPMI-8226 leukemia): > 100 µM
TGI (LXFL 529 NSCLC): > 100 µM
TGI (DMS 273 small cell lung): > 100 µM
TGI (XF 498 CNS): > 100 µM
TGI (SK-MEL-5 melanoma): > 100 µM
TGI (OVCAR-8 ovarian): > 100 µM
TGI (HOP-18 NSCLC): > 100 µM
TGI (MALME-3M melanoma): > 100 µM
TGI (IGROV1 ovarian): > 100 µM
TGI (SR leukemia): > 100 µM
TGI (NCI-H226 lung): > 100 µM
TGI (UACC-257 melanoma): > 100 µM
TGI (HCT-116 colon): > 100 µM
TGI (UO-31 renal): > 100 µM
TGI (NCI-H522 lung): > 100 µM
TGI (SK-MEL-2 melanoma): > 100 µM
TGI (HCC-2998 colon): > 100 µM
TGI (SF-539 CNS): > 100 µM
TGI (OVCAR-4 ovarian): > 100 µM
TGI (OVCAR-3 ovarian): > 100 µM
TGI (SF-295 CNS): > 100 µM
TGI (HOP-62 NSCLC): > 100 µM
TGI (HT29 colon): > 100 µM
TGI (U251 CNS): > 100 µM
TGI (COLO 205 colon): > 100 µM
TGI (SNB-75 CNS): > 100 µM
TGI (KM12 colon): > 100 µM
TGI (A549 NSCLC): > 100 µM
TGI (HOP-92 NSCLC): > 100 µM
TGI (SN12C renal): > 100 µM
TGI (SK-OV-3 ovarian): > 100 µM
TGI (HCT-15 colon): > 100 µM
TGI (NCI-H23 lung): > 100 µM
TGI (NCI-H460 lung): > 100 µM
TGI (M14 melanoma): > 100 µM
TGI (TK-10 renal): > 100 µM
TGI (SK-MEL-28 melanoma): > 100 µM
TGI (KM20L2 colon): > 100 µM

CCNC1CC(n2cc(C)c(=O)[nH]c2=O)OC1CO (stereo not drawn)
TGI (K-562 leukemia): > 100 µM
TGI (786-0 renal): > 100 µM
TGI (DLD-1 colon): > 100 µM
TGI (DMS 114 small cell lung): > 100 µM
TGI (CCRF-CEM leukemia): > 100 µM
TGI (UACC-62 melanoma): > 100 µM
TGI (M19-MEL melanoma): > 100 µM
TGI (MOLT-4 leukemia): > 100 µM
TGI (HL-60(TB) leukemia): > 100 µM
TGI (SF-268 CNS): > 100 µM
TGI (RPMI-8226 leukemia): > 100 µM
TGI (LXFL 529 NSCLC): > 100 µM
TGI (DMS 273 small cell lung): > 100 µM
TGI (XF 498 CNS): > 100 µM
TGI (MALME-3M melanoma): > 100 µM
TGI (IGROV1 ovarian): > 100 µM
TGI (SR leukemia): > 100 µM
TGI (NCI-H226 lung): > 100 µM
TGI (A498 renal): > 100 µM
TGI (HCT-116 colon): > 100 µM
TGI (UO-31 renal): > 100 µM
TGI (NCI-H522 lung): > 100 µM
TGI (SK-MEL-2 melanoma): > 100 µM
TGI (HCC-2998 colon): > 100 µM
TGI (SF-539 CNS): > 100 µM
TGI (OVCAR-4 ovarian): > 100 µM
TGI (HOP-62 NSCLC): > 100 µM
TGI (SNB-78 CNS): > 100 µM
TGI (COLO 205 colon): > 100 µM
TGI (SNB-75 CNS): > 100 µM
TGI (HOP-92 NSCLC): > 100 µM
TGI (SN12C renal): > 100 µM
TGI (SK-OV-3 ovarian): > 100 µM
TGI (NCI-H23 lung): > 100 µM
TGI (NCI-H460 lung): > 100 µM
TGI (M14 melanoma): > 100 µM
TGI (CAKI-1 renal): > 100 µM
TGI (SK-MEL-28 melanoma): > 100 µM

O=C1C(=O)N(c2cc(Cl)ccc2Cl)C(=O)C(=O)C1c1nc2ccccc2s1
TGI (K-562 leukemia): > 100 µM
TGI (SW-620 colon): > 100 µM
TGI (EKVX NSCLC): > 100 µM
TGI (786-0 renal): > 100 µM
TGI (DLD-1 colon): > 100 µM
TGI (DMS 114 small cell lung): > 100 µM
TGI (RXF 393 renal): > 100 µM
TGI (CCRF-CEM leukemia): > 100 µM
TGI (SNB-19 CNS): > 100 µM
TGI (UACC-62 melanoma): > 100 µM
TGI (M19-MEL melanoma): > 100 µM
TGI (OVCAR-5 ovarian): > 100 µM
TGI (ACHN renal): > 100 µM
TGI (LOX IMVI melanoma): > 100 µM
TGI (HL-60(TB) leukemia): > 100 µM
TGI (SF-268 CNS): > 100 µM
TGI (RPMI-8226 leukemia): > 100 µM
TGI (LXFL 529 NSCLC): > 100 µM
TGI (DMS 273 small cell lung): > 100 µM
TGI (XF 498 CNS): > 100 µM
TGI (SK-MEL-5 melanoma): > 100 µM
TGI (OVCAR-8 ovarian): > 100 µM
TGI (MALME-3M melanoma): > 100 µM
TGI (IGROV1 ovarian): > 100 µM
TGI (NCI-H226 lung): > 100 µM
TGI (UACC-257 melanoma): > 100 µM
TGI (A498 renal): > 100 µM
TGI (HCT-116 colon): > 100 µM
TGI (UO-31 renal): 90.8 µM
TGI (NCI-H522 lung): > 100 µM
TGI (SK-MEL-2 melanoma): > 100 µM
TGI (SF-539 CNS): > 100 µM
TGI (OVCAR-4 ovarian): > 100 µM
TGI (OVCAR-3 ovarian): > 100 µM
TGI (SF-295 CNS): > 100 µM
TGI (HOP-62 NSCLC): > 100 µM
TGI (HT29 colon): > 100 µM
TGI (SNB-78 CNS): > 100 µM
TGI (U251 CNS): > 100 µM
TGI (COLO 205 colon): > 100 µM
TGI (SNB-75 CNS): > 100 µM
TGI (KM12 colon): > 100 µM
TGI (A549 NSCLC): > 100 µM
TGI (HOP-92 NSCLC): > 100 µM
TGI (SN12C renal): > 100 µM
TGI (SK-OV-3 ovarian): > 100 µM
TGI (HCT-15 colon): > 100 µM
TGI (NCI-H23 lung): > 100 µM
TGI (NCI-H460 lung): > 100 µM
TGI (M14 melanoma): > 100 µM
TGI (CAKI-1 renal): > 100 µM
TGI (TK-10 renal): > 100 µM
TGI (SK-MEL-28 melanoma): > 100 µM
TGI (KM20L2 colon): > 100 µM
